Reference: patent publication US12472185B2, “Methods for killing antibiotic tolerant bacteria” (THE PENN STATE RESEARCH FOUNDATION, priority 2020, dated 2025)

Experiments:
[1] = system: natural E. coli persister cells; assay: Survival of naturally-occurring persister cells (ampicillin only); type: cell-based, Escherichia coli; settings: NPIMA, compared with rifampicin-generated persisters
Experimental: FIG. 9. NPIMA kills naturally-occurring E. coli persister cells. Survival of E. coli with 5-iodoindole and solvent negative control (DMSO) also shown. Asterisk (*) indicates no viable cells were detected. The persister cells were harvested at stationary-phase of E. coli (turbidity of 6.0 at 600 nm) and non-persister cells were removed by treatment.
E. coli persister cells were prepared following our previous method (Kim, Yamasaki, et al., 2018; Kwan, Valenta, Benedik, & Wood, 2013). Exponentially-growing cells (turbidity of 0.8 at 600 nm) were treated with rifampicin (100 μg/ml for 30 min) to stop transcription, washed, and any remaining nonpersister cells were lysed by ampicillin in LB (100 μg/ml for 3 hr). Cells were harvested by centrifugation (17,000 g for 1 min) and washed with 1× phosphate-buffered saline buffer (PBS, 8 g NaCl, 0.2 g KCl, 1.15 g Na2HPO4, and 0.2 g KH2PO4 per 1,000 ml) twice to remove all possible carbon sources, then resuspended with 1×PBS. […]
(§1) For bacterial viability, cells were washed twice with 0.85% NaCl, resuspended in 1×PBS, and cell counts were determined via the drop assay (Donegan, Matyac, Seidler, & Porteous, 1991). […] Cell viability was determined via a cell counting kit (CCK-8 Kit, ab228554; Abcam), and cytotoxicity was determined via the lactate dehydrogenase (LDH) assay (LDH Assay Kit, MK401; Takara).

[2] = system: S. aureus exponentially-growing cells; assay: Killing at one MIC in PBS, NPIMA compared with cisplatin; type: cell-based, Staphylococcus aureus; settings: 3 hr
From the text: FIG. 7. NPIMA compared width cisplatin for killing Pseudomonas aeruginosa, Escherichia coli, and Staphylococcus aureus. Survival of exponentially-growing cells of P. aeruginosa PA14 (a), E. coli (b), and S. aureus (c) treated with one MIC of NPIMA (♦) and cisplatin (●) for 3 hr in PBS. DMSO (▴) and NaClO4 (*) were used as a negative controls. MIC, minimum inhibitory concentration; NPIMA, 5-nitro-3-phenyl-1H-indol-2-yl-methylamine hydrochloride.
For bacterial viability, cells were washed twice with 0.85% NaCl, resuspended in 1×PBS, and cell counts were determined via the drop assay (Donegan, Matyac, Seidler, & Porteous, 1991). For human cell viability, pre-cultured human cancer HT-29 cells were dispensed in 98 μl in 96-well plates with approximately 5,000 cells/well. NPIMA was added (2 μl) to produce concentrations of 5, 10, 100, and 200 μM. For controls, Triton X-100 (positive control) and DMSO (negative solvent control), were used, and the medium was used for background. Plates were incubated in a humidified incubator (37° C., 5% CO2) for 24 hr. Cell viability was determined via a cell counting kit (CCK-8 Kit, ab228554; Abcam), and cytotoxicity was determined via the lactate dehydrogenase (LDH) assay (LDH Assay Kit, MK401; Takara).

[3] = system: P. aeruginosa + S. aureus; assay: In vitro Lubbock chronic wound pathogenic biofilm model; type: cell-based, Pseudomonas aeruginosa and Staphylococcus aureus; settings: 0.5 mM, 6 hr
Experimental: FIG. 10. NPIMA kills S. aureus and P. aeruginosa in a wound model. Survival of total cells (P. aeruginosa+S. aureus) in the wound model after treatment with NPIMA for 6 h. The left bar is the solvent (DMSO) negative control.
Overnight cultures of S. aureus and P. aeruginosa PA14 were diluted in wound-like media (45% Bolton broth, 50% bovine plasma, and 5% laked horse blood; Sun, Dowd, Smith, Rhoads, & Wolcott, 2008) to a turbidity of 0.5 at 600 nm in 1 ml. Each culture (1%) was used to inoculate fresh 5 ml of wound-like media. The combined culture (200 μl/well) was placed into 96-well plates and incubated at 37° C. with shaking for 24 hr. The non-gel liquid was removed, then the gel was washed once with PBS. NPIMA (0.1 and 0.5 mM) and DMSO were then added (200 μl/well) to the plates, which were incubated for another 6 hr with shaking. By triturating, the gel with cells was removed and added to 0.8 ml of PBS, and the cell viability was measured by spreading 100 μl of diluted culture on LB plates.

[4] = system: E. coli BW25113 persister cells; assay: Survival of persister cells (rifampicin/ampicillin generated); type: cell-based, Escherichia coli; settings: 100 μM
Experimental: FIG. 3. NPIMA kills Escherichia coli, Pseudomonas aeruginosa, persister cells. Survival of (a) E. coli BW25113 and (b) P. aeruginosa PA14 after treatment with NPIMA (100 μM), 5-iodoindole (5-II, 100 μM), and DMSO for 6 hr. Asterisk indicates no viable cells detected. DMSO, dimethyl sulfoxide; NPIMA, 5-nitro-3-phenyl-1H-indol-2-yl-methylamine hydrochloride.
E. coli persister cells were prepared following our previous method (Kim, Yamasaki, et al., 2018; Kwan, Valenta, Benedik, & Wood, 2013). Exponentially-growing cells (turbidity of 0.8 at 600 nm) were treated with rifampicin (100 μg/ml for 30 min) to stop transcription, washed, and any remaining nonpersister cells were lysed by ampicillin in LB (100 μg/ml for 3 hr). Cells were harvested by centrifugation (17,000 g for 1 min) and washed with 1× phosphate-buffered saline buffer (PBS, 8 g NaCl, 0.2 g KCl, 1.15 g Na2HPO4, and 0.2 g KH2PO4 per 1,000 ml) twice to remove all possible carbon sources, then resuspended with 1×PBS. Natural E. coli persister cells were generated by treating stationary-phase cells (turbidity of 6 at 600 nm) with ampicillin (100 μg/ml) for 3 hr. P. aeruginosa PA14 persister cells were prepared by incubating to the stationary phase, diluting sixfold, and treating with carbonyl cyanide m-chlorophenylhydrazone (CCCP, 50 mg/ml stock solution in dimethly sulfoxide [DMSO]) to stop adenosine triphosphate (ATP) production (200 μg/ml for 3 hr), washed twice with 0.85% NaCl (5,000 g for 10 min), and any nonpersister cells were killed by ciprofloxacin (5 μg/ml) in LB for 3 hr. Following the antibiotic treatment, bacteria were washed twice with 0.85% NaCl (5,000 g for 10 min).
as §1

[5] = system: E. coli BW25113; assay: Lysis assays (total protein and DNA in supernatants); type: cell-based, Escherichia coli; settings: 100 μM, 1 hr
Experimental: FIG. 5. NPIMA lyses Escherichia coli, Pseudomonas aeruginosa, and Staphylococcus aureus. Total protein (a) and DNA (b) found in supernatants as evidence of cell lysis after treatment of cells at a turbidity of 0.8 at 600 nm with 100 μM NPIMA after 1 hr for E. coli and P. aeruginosa and 6 hr for S. aureus. NPIMA, 5-nitro-3-phenyl-1H-indol-2-yl-methylamine hydrochloride.
Exponentially-growing E. coli BW25113 cells (turbidity 0.8 at 600 nm) were washed twice with 0.85% NaCl, resuspended in 1 ml of 1×PBS, and NPIMA (100 μM) was added for 1 hr for E. coli and P. aeruginosa and 6 hr for S. aureus with shaking at 250 rpm (0.1% DMSO was used as the negative control). Cell supernatants were collected after centrifuging at 6,500 g (4° C. for 15 min), and total protein was measured by the Bicinchoninic Acid (BCA) protein assay Kit (Prod #23227; Pierce). DNA in the supernatant (199 μl) was detected by adding 1 μl of Picogreen (P7589; Invitrogen) and incubating for 5 min at room temperature in the dark room. The fluorescence signal was read by a Tecan microplate reader (Infinite M200PRO) with 480 nm excitation and 520 nm emission by utilizing a calibration curved made with plasmid pEX18Ap at 0, 0.004, 0.008, 0.016, 0.063, 0.125, 0.25, and 0.5 ng/μl.

SMILES: Cl.NCc1[nH]c2ccc([N+](=O)[O-])cc2c1-c1ccccc1 [NPIMA, [(5-nitro-3-phenyl-1H-indol-2-yl)methyl]amine hydrochloride]
- killing of natural persisters (ampicillin treatment only) [1]: killed in an identical manner
- effectiveness relative to cisplatin [2]: less effective than cisplatin
- reduction of total viable number of cells compared to DMSO [3]: 10 fold
- time to eradicate E. coli persisters [4]: 6 h
- killing of E. coli persister cells ([4]; 6 hr): eradicated
- increase in DNA in the supernatants compared to DMSO alone [5]: 3.8±0.8
- increase in total cell protein in supernatants compared to DMSO alone [5]: 10±2
